From patent US8497245B2, “Trypsin-like serine protease inhibitors, their preparation and use as selective inhibitors of the clotting factors IIa and Xa” (The Medicines Company (Leipzig) GmbH, priority 2010, dated 2013)
Counter-ions that a name gives are not always drawn.

What was measured:
Format in all cases: biochemical
[1] = target: T1, human factor IIa (human alpha-thrombin) (Homo sapiens, UniProt P00734); test: Inhibition constants for human factor IIa, chromogenic substrate assay; settings: 25° C., Pefachrome tPA substrate, average of at least three determinations; read-out: Ki h FIIa
T1 construct: human alpha-thrombin from Enzyme Research Laboratories; purchased Enzyme Research Laboratories
Method: (§1) The inhibitory effect against the individual purified enzymes was determined in analogy to a previously disclosed method (Stürzebecher et al., J. Med. Chem., 40, 3091-3099 (1997)).
(§2) 200 μL of TBS (0.05 M trishydroxymethylaminomethane; 0.154 M NaCl, 2% ethanol, pH 8.0)
(§3) The release of p-nitroaniline (p-NA, the chromogenic product of the proteolytic activity), was determined by change in absorbance at 405 nm. The equilibrium rates were used to calculate the inhibitor/enzyme dissociation constant (Ki values) by parameter fitting in accordance with the rate equation for competitive inhibition using GraFit (version 4 from Erithacus). The results are reported as Ki values (nanomolar) in table 7 and are the average of at least three determinations.

human Factor Xa = target: T2, human Factor Xa (Homo sapiens, UniProt P00742); test: Inhibition constants for human factor Xa, chromogenic substrate assay; settings: 25° C., Pefachrome FXa substrate, average of at least three determinations; read-out: Ki h FXa
T2 construct: human Factor Xa from Enzyme Research Laboratories; purchased Enzyme Research Laboratories
T2 sequence (P00742 235-488 limits assumed): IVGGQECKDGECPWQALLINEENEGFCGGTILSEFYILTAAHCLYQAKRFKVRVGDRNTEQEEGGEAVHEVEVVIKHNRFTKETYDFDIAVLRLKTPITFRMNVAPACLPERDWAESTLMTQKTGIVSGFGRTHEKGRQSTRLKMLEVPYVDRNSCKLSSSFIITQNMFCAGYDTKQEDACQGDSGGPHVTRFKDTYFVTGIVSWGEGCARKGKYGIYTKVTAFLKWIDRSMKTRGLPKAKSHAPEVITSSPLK
T2 sequence (P00742 41-179 partner limits assumed): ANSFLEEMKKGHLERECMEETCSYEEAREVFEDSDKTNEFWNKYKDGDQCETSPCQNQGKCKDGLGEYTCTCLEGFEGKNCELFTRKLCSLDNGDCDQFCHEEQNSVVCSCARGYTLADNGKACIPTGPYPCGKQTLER
Method: as §1, §2, §3

[2] = target: T3, Human Activated Protein C (h aPC) (Homo sapiens, UniProt P04070); test: Inhibition of human activated protein C (reference enzyme); settings: Pefachrome PCa substrate
T3 construct: purchased Enzyme Research Laboratories
T3 sequence (P04070 212-450 limits assumed): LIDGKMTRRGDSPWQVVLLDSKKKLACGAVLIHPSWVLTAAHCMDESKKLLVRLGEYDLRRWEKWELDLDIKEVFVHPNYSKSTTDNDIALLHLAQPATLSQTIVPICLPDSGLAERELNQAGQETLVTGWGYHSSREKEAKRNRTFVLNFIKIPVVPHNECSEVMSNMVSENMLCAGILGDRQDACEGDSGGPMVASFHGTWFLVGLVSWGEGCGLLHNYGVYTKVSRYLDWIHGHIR
T3 sequence (P04070 43-197 partner limits assumed): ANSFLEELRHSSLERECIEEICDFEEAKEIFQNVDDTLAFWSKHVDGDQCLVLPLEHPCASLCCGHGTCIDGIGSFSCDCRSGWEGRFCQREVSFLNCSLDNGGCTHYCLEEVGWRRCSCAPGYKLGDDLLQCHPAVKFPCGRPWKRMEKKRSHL
Method: as §1, §3
(§4) Dissociation constants were calculated as described herein.

[3] = target: T4, Human plasmin (h plasmin) (Homo sapiens, UniProt P00747); test: Inhibition of human plasmin (reference enzyme); settings: Chromozym PL substrate
T4 construct: purchased Calbiochem
T4 sequence (P00747 581-810 limits assumed): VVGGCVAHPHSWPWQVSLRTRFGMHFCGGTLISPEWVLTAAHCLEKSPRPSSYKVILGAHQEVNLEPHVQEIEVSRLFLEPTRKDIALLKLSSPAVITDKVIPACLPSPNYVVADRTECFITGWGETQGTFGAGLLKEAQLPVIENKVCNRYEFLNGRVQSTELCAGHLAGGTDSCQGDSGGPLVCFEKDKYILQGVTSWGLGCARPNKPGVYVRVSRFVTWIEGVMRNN
T4 sequence (P00747 97-580 partner limits assumed): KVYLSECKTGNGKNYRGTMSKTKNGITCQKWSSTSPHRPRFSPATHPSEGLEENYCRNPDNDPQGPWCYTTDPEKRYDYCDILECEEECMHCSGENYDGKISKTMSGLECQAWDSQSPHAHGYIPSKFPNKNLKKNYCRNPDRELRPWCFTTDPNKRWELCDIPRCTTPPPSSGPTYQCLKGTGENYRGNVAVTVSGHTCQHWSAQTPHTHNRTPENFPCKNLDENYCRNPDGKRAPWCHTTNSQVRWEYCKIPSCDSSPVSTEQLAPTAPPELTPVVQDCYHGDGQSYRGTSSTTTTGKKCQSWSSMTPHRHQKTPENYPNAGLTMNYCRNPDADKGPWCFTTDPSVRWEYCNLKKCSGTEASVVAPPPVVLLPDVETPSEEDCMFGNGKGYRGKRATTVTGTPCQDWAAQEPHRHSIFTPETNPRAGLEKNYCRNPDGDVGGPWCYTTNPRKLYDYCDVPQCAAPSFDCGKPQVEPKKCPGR
Method: as §1, §3, §4

[4] = target: T5, Human plasma kallikrein (h PK) (Homo sapiens, UniProt P03952); test: Inhibition of human plasma kallikrein (reference enzyme); settings: S2302 substrate
T5 construct: purchased Enzyme Research Laboratories
T5 sequence (P03952 391-638 limits assumed): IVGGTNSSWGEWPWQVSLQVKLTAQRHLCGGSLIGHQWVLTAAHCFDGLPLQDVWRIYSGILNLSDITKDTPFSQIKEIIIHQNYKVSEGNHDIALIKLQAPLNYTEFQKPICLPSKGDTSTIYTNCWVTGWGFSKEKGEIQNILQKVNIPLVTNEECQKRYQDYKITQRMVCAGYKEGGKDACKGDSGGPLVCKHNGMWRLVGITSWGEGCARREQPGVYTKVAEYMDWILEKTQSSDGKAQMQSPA
T5 sequence (P03952 20-390 partner limits assumed): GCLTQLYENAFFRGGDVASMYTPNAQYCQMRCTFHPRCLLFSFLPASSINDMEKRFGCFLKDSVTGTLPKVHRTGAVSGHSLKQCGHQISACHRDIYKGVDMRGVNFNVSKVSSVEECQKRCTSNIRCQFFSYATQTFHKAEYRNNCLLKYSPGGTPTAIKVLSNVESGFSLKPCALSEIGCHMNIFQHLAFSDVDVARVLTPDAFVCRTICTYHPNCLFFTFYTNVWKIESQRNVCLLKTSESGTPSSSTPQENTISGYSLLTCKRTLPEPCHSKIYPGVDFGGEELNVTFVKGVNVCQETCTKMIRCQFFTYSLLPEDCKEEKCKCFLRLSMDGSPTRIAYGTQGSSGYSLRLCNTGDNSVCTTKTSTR
Method: as §1, §3, §4

[5] = target: T6, Human tissue-type plasminogen activator (h t-PA) (Homo sapiens, UniProt P00750); test: Inhibition of human tissue-type plasminogen activator (reference enzyme); settings: Pefachrome tPA substrate; read-out: Ki h t-PA
T6 construct: purchased Boehringer Ingelheim Actilyse
T6 sequence (P00750 36-562): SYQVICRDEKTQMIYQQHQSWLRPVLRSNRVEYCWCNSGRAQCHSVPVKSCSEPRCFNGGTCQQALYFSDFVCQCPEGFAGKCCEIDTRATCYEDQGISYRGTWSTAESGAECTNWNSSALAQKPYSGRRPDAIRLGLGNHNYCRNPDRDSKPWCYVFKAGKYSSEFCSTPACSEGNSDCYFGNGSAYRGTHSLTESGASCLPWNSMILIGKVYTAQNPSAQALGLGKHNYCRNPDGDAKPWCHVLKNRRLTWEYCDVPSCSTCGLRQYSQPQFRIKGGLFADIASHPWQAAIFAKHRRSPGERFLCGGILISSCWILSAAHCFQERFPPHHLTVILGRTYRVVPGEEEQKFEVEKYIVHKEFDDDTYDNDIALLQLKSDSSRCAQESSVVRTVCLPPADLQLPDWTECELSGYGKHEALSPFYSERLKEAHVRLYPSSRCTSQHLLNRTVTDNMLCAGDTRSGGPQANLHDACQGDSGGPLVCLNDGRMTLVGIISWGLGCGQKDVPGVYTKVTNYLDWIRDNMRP
Method: The equilibrium rates were used to calculate the inhibitor/enzyme dissociation constant (Ki values) by parameter fitting in accordance with the rate equation for competitive inhibition using GraFit (version 4 from Erithacus).
as §4

[6] = target: T7, Human urokinase type plasminogen activator (h u-PA) (Homo sapiens, UniProt P00749); test: Inhibition of human urokinase type plasminogen activator (reference enzyme); settings: H-Glu-Gly-Arg-pNA substrate
T7 construct: purchased MEDAC GmbH Urokinase HS medac
Method: as §1, §3, §4

[7] = target: T8, Subcomponent "s" of Human Complement Component 1 (h C1s) (Homo sapiens, UniProt P09871); test: Inhibition of human C1s (reference enzyme); settings: S-2314 substrate; read-out: Ki h Cls
T8 construct: purchased Calbiochem
T8 sequence (P09871 438-688 limits assumed): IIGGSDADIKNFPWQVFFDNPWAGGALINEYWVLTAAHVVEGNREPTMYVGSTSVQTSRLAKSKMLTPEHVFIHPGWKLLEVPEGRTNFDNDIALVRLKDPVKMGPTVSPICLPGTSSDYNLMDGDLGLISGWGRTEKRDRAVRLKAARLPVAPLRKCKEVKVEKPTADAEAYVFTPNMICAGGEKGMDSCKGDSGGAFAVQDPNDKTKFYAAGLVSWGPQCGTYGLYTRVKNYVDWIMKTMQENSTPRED
T8 sequence (P09871 16-437 partner limits assumed): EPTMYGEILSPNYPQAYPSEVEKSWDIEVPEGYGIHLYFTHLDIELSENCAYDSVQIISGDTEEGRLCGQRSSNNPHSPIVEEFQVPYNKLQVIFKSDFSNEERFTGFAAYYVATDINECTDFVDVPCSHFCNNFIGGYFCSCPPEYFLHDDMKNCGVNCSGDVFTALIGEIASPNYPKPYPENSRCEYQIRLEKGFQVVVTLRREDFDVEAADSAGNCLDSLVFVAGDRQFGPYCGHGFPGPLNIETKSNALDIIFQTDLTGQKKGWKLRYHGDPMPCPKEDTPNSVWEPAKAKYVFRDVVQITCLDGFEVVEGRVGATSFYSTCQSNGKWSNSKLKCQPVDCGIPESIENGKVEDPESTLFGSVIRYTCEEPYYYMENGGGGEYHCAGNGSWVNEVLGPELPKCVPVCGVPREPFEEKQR
Method: as §1, §3, §4

[8] = target: T9, Subcomponent "r" of Human Complement Component 1 (h C1r) (Homo sapiens, UniProt P00736); test: Inhibition of human C1r (reference enzyme); settings: S-2314 substrate; read-out: Ki h Clr
T9 construct: purchased Calbiochem
T9 sequence (P00736 464-705 limits assumed): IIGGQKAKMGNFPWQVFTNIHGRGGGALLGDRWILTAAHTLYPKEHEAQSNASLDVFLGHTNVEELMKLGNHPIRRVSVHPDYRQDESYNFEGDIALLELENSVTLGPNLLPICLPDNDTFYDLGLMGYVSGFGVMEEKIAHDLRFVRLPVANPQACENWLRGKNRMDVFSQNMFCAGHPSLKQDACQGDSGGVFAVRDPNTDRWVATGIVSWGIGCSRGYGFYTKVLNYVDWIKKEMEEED
T9 sequence (P00736 18-463 partner limits assumed): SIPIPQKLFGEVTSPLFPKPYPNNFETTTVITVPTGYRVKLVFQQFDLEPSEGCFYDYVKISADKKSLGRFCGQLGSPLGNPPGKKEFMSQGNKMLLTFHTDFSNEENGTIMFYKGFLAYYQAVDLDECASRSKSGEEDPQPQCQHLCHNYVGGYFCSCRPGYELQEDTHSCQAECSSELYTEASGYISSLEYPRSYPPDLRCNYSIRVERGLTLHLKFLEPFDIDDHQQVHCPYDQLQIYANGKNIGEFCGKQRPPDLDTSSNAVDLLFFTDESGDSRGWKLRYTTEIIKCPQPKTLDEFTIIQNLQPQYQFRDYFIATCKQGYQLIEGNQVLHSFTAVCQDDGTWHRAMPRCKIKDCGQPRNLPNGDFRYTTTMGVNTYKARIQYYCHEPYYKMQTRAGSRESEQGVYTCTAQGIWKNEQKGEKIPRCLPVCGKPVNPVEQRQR
Method: as §1, §3, §4

[9] = target: T10, Human urinary kallikrein (h uKK) (Homo sapiens, UniProt P06870); test: Inhibition of human urinary kallikrein (reference enzyme); settings: S-2266 substrate
T10 construct: purchased Lee Biosolutions
T10 sequence (P06870 25-262): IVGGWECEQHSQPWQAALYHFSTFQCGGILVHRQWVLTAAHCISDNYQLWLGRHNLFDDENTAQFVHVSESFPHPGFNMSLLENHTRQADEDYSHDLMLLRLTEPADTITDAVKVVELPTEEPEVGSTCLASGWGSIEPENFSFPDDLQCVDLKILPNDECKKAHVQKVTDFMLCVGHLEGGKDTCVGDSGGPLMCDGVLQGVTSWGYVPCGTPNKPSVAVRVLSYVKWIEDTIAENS
Method: as §1, §3, §4

| Structure (SMILES) | Ki [1] [µM] | Ki (human Factor Xa) [µM] | Ki [2] [µM] | Ki [3] [µM] | Ki [4] [µM] | Ki [5] [µM] | Ki [6] [µM] | Ki [7] [µM] | Ki [8] [µM] | Ki [9] [µM] |
| --- | --- | --- | --- | --- | --- | --- | --- | --- | --- | --- |
| CC(=O)N1CCC(CN(C)C(=O)C[C@@H](NS(=O)(=O)Cc2ccccc2)C(=O)N2CCC[C@H]2C(=O)NCc2cc(Cl)ccc2CN)CC1 [Compound 2.17] | 0.0002 | 0.0037 | > 40 | > 5 | 0.417 | > 100 | > 40 | > 100 | > 10 | > 20 |
| NCc1ccc(Cl)cc1CNC(=O)[C@@H]1CCN1C(=O)[C@@H](CC(=O)N1CCOCC1)NS(=O)(=O)Cc1ccccc1 [Compound 2.44] | 0.004 | 0.00087 | > 100 | > 10 | 1.83 | > 35 | > 50 | > 100 | > 100 | > 20 |
| CN(CC1CCOCC1)C(=O)C[C@@H](NS(=O)(=O)Cc1ccccc1)C(=O)N1CCC[C@H]1C(=O)NCc1cc(Cl)ccc1CN [Compound 2.47, Bzls-D-Asp((tetrahydro-2H-pyran-4-yl)-N-methylmethanamine)-L-Pro-Amb(2-AMe-5-Cl)×2 TFA] | 0.00032 | 0.002 | > 100 | > 15 | 0.304 | > 50 | > 100 | > 100 | > 10 | > 20 |
| NCc1ccc(Cl)cc1CNC(=O)[C@@H]1C[C@H](O)CN1C(=O)[C@@H](CCC(=O)N1CCOCC1)NS(=O)(=O)Cc1ccccc1 [Compound 2.22] | 0.085 | 0.00068 | > 25 | > 100 | 2.69 | > 100 | > 100 | > 50 | > 100 | > 100 |
| NCc1ccc(Cl)cc1CNC(=O)[C@@H]1CCCCN1C(=O)[C@@H](CCC(=O)N1CCOCC1)NS(=O)(=O)Cc1ccccc1 [Compound 2.15] | 0.0007 | 0.0094 | > 10 | > 5 | 7.2 | > 10 | > 50 | > 50 | > 20 | > 10 |
| NCc1ccc(Cl)cc1CNC(=O)[C@@H]1CCCN1C(=O)[C@@H](CC(=O)N1CC[C@@H](N)C1)NS(=O)(=O)Cc1ccccc1 [Compound 2.11] | 0.0059 | 0.014 | > 50 | > 100 | 3.35 | > 100 | > 20 | > 100 | > 50 | > 50 |
| NCc1ccc(Cl)cc1CNC(=O)[C@@H]1CCCN1C(=O)[C@@H](CCC(=O)N1CCOCC1)NC(=O)Cc1ccccc1 [Compound 2.42] | 0.088 | 0.965 | > 10 | > 50 | > 50 | > 50 | > 100 | > 100 | > 20 | > 20 |
| NCc1ccc(Cl)cc1CNC(=O)[C@@H]1C[C@@H](N)CN1C(=O)[C@@H](CCC(=O)N1CCOCC1)NS(=O)(=O)Cc1ccccc1 [Compound 2.25] | 0.0047 | 0.0011 | > 100 | > 10 | 2.58 | > 50 | > 30 | > 100 | > 20 | > 50 |

Further compounds by falling Ki [1], results first:

| Ki [1] [µM] | Ki (human Factor Xa) [µM] | Ki [2] [µM] | Ki [3] [µM] | Ki [4] [µM] | Ki [5] [µM] | Ki [6] [µM] | Ki [7] [µM] | Ki [8] [µM] | Ki [9] [µM] | Structure (SMILES) |
| --- | --- | --- | --- | --- | --- | --- | --- | --- | --- | --- |
| 0.014 | 0.0052 | > 100 | > 15 | 3.34 | > 20 | > 25 | > 100 | > 100 | > 100 | NCc1ccc(Cl)cc1CNC(=O)[C@@H]1CCN1C(=O)[C@@H](CC(=O)N1CCNCC1)NS(=O)(=O)Cc1ccccc1 [Compound 2.50, Bzls-D-Asp(piperazinyl)-L-Aze-Amb(2-AMe-5-Cl)×2 TFA] |
| 0.0017 | 0.021 | > 100 | > 20 | 1.76 | > 100 | > 100 | > 100 | > 100 | > 100 | NCc1ccc(Cl)cc1CNC(=O)[C@@H]1CCCN1C(=O)[C@@H](CC(=O)Nc1ccncc1)NS(=O)(=O)Cc1ccccc1 [Compound 2.34] |
| 0.0012 | 0.0025 | > 25 | > 10 | 0.93 | > 20 | > 100 | > 50 | > 50 | > 200 | NCc1ccc(Cl)cc1CNC(=O)[C@@H]1CCCN1C(=O)[C@@H](CC(=O)N1CC[C@@H](O)C1)NS(=O)(=O)Cc1ccccc1 [Compound 2.9] |
| 0.00057 | 0.00018 | > 50 | 11.9 | 0.322 | 15.3 | > 50 | > 30 | > 20 | > 50 | NCc1ccc(Cl)cc1CNC(=O)[C@@H]1C[C@@H](N)CN1C(=O)[C@@H](CC(=O)N1CCCCC1)NS(=O)(=O)Cc1ccccc1 [Compound 2.7] |
| 0.00048 | 0.021 | > 100 | > 10 | 4 | > 20 | > 100 | > 100 | > 100 | > 100 | NCc1ccc(Cl)cc1CNC(=O)[C@@H]1CCCN1C(=O)[C@@H](CCC(=O)N1CCNCC1)NS(=O)(=O)Cc1ccccc1 [Compound 2.31] |
| 0.00021 | 0.00013 | > 40 | > 20 | 0.337 | > 10 | > 80 | > 50 | > 100 | > 100 | NCc1ccc(Cl)cc1CNC(=O)[C@@H]1CCCN1C(=O)[C@@H](CC(=O)N1CCCC1)NS(=O)(=O)Cc1ccccc1 [Compound 2.8] |
| 0.00011 | 0.00012 | > 100 | 8 | 0.605 | > 15 | > 50 | > 80 | > 50 | > 40 | NCc1ccc(Cl)cc1CNC(=O)[C@@H]1CCCN1C(=O)[C@@H](CC(=O)N1CCCCC1)NS(=O)(=O)Cc1ccccc1 [Compound 2.41] |
